Columns and labels:
[1] = system: HCT116 cells; assay: HCT116 cell proliferation MTT assay; assay type: cell-based; conditions: HCT-116; HCT116 human colon carcinoma cells, MTT assay after 5 days (120 h) incubation, compound 3 uM to 0.15 nM
Description: HCT116 cells (human colon carcinoma cell line) were cultivated in RPMI 1640, 2.5% FCS, 2 mM Glutamine, 100 u/ml Penicillin, 100 ug/ml Streptomycin. For the assay the cells were seeded in 384 well plates, 1000 cells per well, in the same medium
The next day compounds (dissolved 10 mM in DMSO) were added in various concentrations ranging from 3 uM to 0.15 nM. After 5 days the MTT assay was done mainly according to the instructions of the manufacturer (Cell proliferation kit I, MTT, from Roche Molecular Biochemicals). In brief: MTT labeling reagent was added to a final concentration of 0.5 mg/ml, added and incubated for 4 hrs at 37° C., 5% CO2. During this incubation time purple formazan crystals are formed. After addition of the solubilization solution (20% SDS in 0.02 M HCl) the plates were incubated overnight at 37° C., 5% CO2. After careful mixing plates were measured in Victor 2 (scanning multiwell spectrophotometer, Wallac) at 550 nm.
A decrease in number of living cells results in a decrease in the total metabolic activity in the sample. The decrease directly correlates to the amount of purple color resulting from the solubilization of the purple formazan crystals.
Materials: • HCT116 1000 cells in 60 ul per well of 384 well plate (Greiner) • Medium: RPMI 1640, 2.5% FCS, glutamine, pen/strep. • Incubate 1 day at 37° C.
Induction: • Dilution of compound in DMSO: 3 ul 10 mM+27 ul DMSO, dilute 1:3 • Add 2 ul of compound dilution row to 95 ul of medium • Add 10 ul of compound dilution to 60 ul medium in test plate results in 0.3% DMSO per well • Incubate 120 h (5 days) at 37° C., 5% CO2
Analysis: • Add 7 ul MTT ([…]), incubate 4 h at 37° C. • Add 30 ul lysis buffer (20% SDS, 0.04N HCl) per well • Incubate overnight at 37° C.
Measurement: • Victor 2 (scanning multiwell spectrophotometer, Wallac), at 550 nm • Determination of IC50 was done using XL-fit.

| IC50 [1] [nM] | melting point [°C] | SMILES |
| --- | --- | --- |
| 20 to 40 | 127 to 129 | CN(C(=O)c1coc(C=Cc2ccc(C(F)(F)F)cc2)n1)c1ccc(CCCCn2ccnn2)cc1 [Example 12, 2-[2-(4-Trifluoromethyl-phenyl)-vinyl]-oxazole-4-carboxylic acid methyl-[4-(4-[1,2,3]triazol-1-yl-butyl)-phenyl]-amide] |
| > 40 | 109 to 111 | Fc1ccc(C=Cc2nc(CNc3ccc(CCCCn4ccnn4)cc3)co2)c(C(F)(F)F)c1 [Example 27, {2-[2-(4-Fluoro-2-trifluoromethyl-phenyl)-vinyl]-oxazol-4-ylmethyl}-[4-(4-[1,2,3]triazol-1-yl-butyl)-phenyl]-amine] |

The next lines start with the compound.

| SMILES | IC50 [1] [nM] | melting point [°C] |
| --- | --- | --- |
| CN(Cc1coc(C=Cc2ccc(C(F)(F)F)cc2)n1)c1ccc(OCCCn2ccnn2)cc1 [Example 10, Methyl-[4-(3-[1,2,3]triazol-1-yl-propoxy)-phenyl]-{2-[2-(4-trifluoromethyl-phenyl)-vinyl]-oxazol-4-ylmethyl}-amine] | > 40 | 137 to 138 |
| O=C(Nc1ccc(CCCCn2ccnn2)cc1)c1coc(C=Cc2ccc(C(F)(F)F)cc2)n1 [Example 11, 2-[2-(4-Trifluoromethyl-phenyl)-vinyl]-oxazole-4-carboxylic acid [4-(4-[1,2,3]triazol-1-yl-butyl)-phenyl]-amide] | 20 to 40 | 183 to 185 |
| Clc1ccc(C=Cc2nc(CNc3ccc(CCCCn4ccnn4)cc3)co2)cc1Cl [Example 25, {2-[2-(3,4-Dichloro-phenyl)-vinyl]-oxazol-4-ylmethyl}-[4-(4-[1,2,3]triazol-1-yl-butyl)-phenyl]-amine] | < 20 | 76.8 to 78.8 |
| FC(F)(F)Oc1cccc(C=Cc2nc(CNc3ccc(CCCCn4ccnn4)cc3)co2)c1 [Example 28, [4-(4-[1,2,3]Triazol-1-yl-butyl)-phenyl]-{2-[2-(3-trifluoromethoxy-phenyl)-vinyl]-oxazol-4-ylmethyl}-amine] | > 40 | 91 to 93 |
| [O-][S+](c1ccc(/C=C/c2nc(CNc3ccc(CCCCn4ccnn4)cc3)co2)cc1)C(F)(F)F (centres unmarked) [Example 33, [4-(4-[1,2,3]Triazol-1-yl-butyl)phenyl]-{2-[(E)-2-(-4-trifluoromethanesulfinyl-phenyl)-vinyl]-oxazol-4-ylmethyl}-amine] | > 40 | 121 to 124 |

From US7205326B2, “Aniline derivatives, their manufacture and use as pharmaceutical agents” (Hoffmann-La Roche Inc., priority 2003, dated 2007)
